How the values were obtained:
Format in all cases: in vivo
[1] = test system: ivy-leaved morning glory (Ipomoea hederacea); test: Test G Pre-Emergence Protocol; settings: Ipomoea, pre-emergence, 312 h, evaluated after 13 days; for pest or weed control at 15.625 g/ha: 15.625 g ai/ha, read-out: Morning-glory, Ivy-leaved damage rating (100=total damage to plant; 0=no damage to plant); for pest or weed control at 62.5 g/ha: 62.5 g ai/ha, 100=total damage to plant, 0=no damage to plant, read-out: plant damage rating, Morningglory, Ivy-leaved; for pest or weed control at 250 g/ha: 250 g ai/ha, read-out: Morningglory, Ivy-leaved damage rating (100=total damage to plant; 0=no damage to plant)
Procedure, shortened: (§1)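 Seeds were sown in standard soil and kept one day in a glasshouse (24/16° C day/night, 14 h light, 65% humidity), then sprayed with compound in acetone/water (50:50) containing 0.5% Tween 20 at 15.625, 62.5 or 250 g/ha. Damage was scored after 13 days (0 = none, 100 = total).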

[2] = test system: giant foxtail (Setaria faberi); test: Test G Pre-Emergence Protocol; settings: Setaria faberi, pre-emergence, 312 h, evaluated after 13 days; for pest or weed control at 15.625 g/ha: 15.625 g ai/ha; for pest or weed control at 15.625 g/ha / pest or weed control at 250 g/ha: read-out: Foxtail, Giant damage rating (100=total damage to plant; 0=no damage to plant); for pest or weed control at 62.5 g/ha: 62.5 g ai/ha, 100=total damage to plant, 0=no damage to plant, read-out: plant damage rating, Foxtail, Giant; for pest or weed control at 250 g/ha: 250 g ai/ha
Procedure, shortened: as §1

[3] = test system: redroot pigweed (Amaranthus retroflexus); test: Test G Pre-Emergence Protocol; settings: Amaranthus retroflexus, pre-emergence, 312 h, evaluated after 13 days; for pest or weed control at 15.625 g/ha: 15.625 g ai/ha; for pest or weed control at 15.625 g/ha / pest or weed control at 250 g/ha: read-out: Pigweed, Redroot damage rating (100=total damage to plant; 0=no damage to plant); for pest or weed control at 62.5 g/ha: 62.5 g ai/ha, 100=total damage to plant, 0=no damage to plant, read-out: plant damage rating, Pigweed, Redroot; for pest or weed control at 250 g/ha: 250 g ai/ha
Procedure, shortened: as §1

[4] = test system: barnyardgrass (Echinochloa crus-galli); test: Test G Pre-Emergence Protocol; settings: Echinochloa crus-galli, pre-emergence, 312 h, evaluated after 13 days; for pest or weed control at 15.625 g/ha: 15.625 g ai/ha, read-out: Barnyard grass damage rating (100=total damage to plant; 0=no damage to plant); for pest or weed control at 62.5 g/ha: 62.5 g ai/ha, 100=total damage to plant, 0=no damage to plant, read-out: plant damage rating, Barnyardgrass; for pest or weed control at 250 g/ha: 250 g ai/ha, read-out: Barnyardgrass damage rating (100=total damage to plant; 0=no damage to plant)
Procedure, shortened: as §1

[5] = test system: velvetleaf (Abutilon theophrasti); test: Test G Pre-Emergence Protocol; settings: Abutilon theophrasti, pre-emergence, 312 h, evaluated after 13 days; for pest or weed control at 15.625 g/ha: 15.625 g ai/ha; for pest or weed control at 15.625 g/ha / pest or weed control at 250 g/ha: read-out: Velvetleaf damage rating (100=total damage to plant; 0=no damage to plant); for pest or weed control at 62.5 g/ha: 62.5 g ai/ha, 100=total damage to plant, 0=no damage to plant, read-out: plant damage rating, Velvetleaf; for pest or weed control at 250 g/ha: 250 g ai/ha
Procedure, shortened: as §1

[6] = test system: corn (Zea mays); test: Test G Pre-Emergence Protocol; settings: Zea mays, pre-emergence, 312 h, evaluated after 13 days; for plant injury at 15.625 g/ha: 15.625 g ai/ha; for plant injury at 15.625 g/ha / plant injury at 250 g/ha: read-out: Corn damage rating (100=total damage to plant; 0=no damage to plant); for plant injury at 62.5 g/ha: 62.5 g ai/ha, 100=total damage to plant, 0=no damage to plant, read-out: plant damage rating, Corn; for plant injury at 250 g/ha: 250 g ai/ha
Procedure, shortened: as §1

[7] = test system: ivy-leaved morning glory (Ipomoea hederacea); test: Test G Post-Emergence Protocol; settings: Ipomoea, post-emergence, 312 h; for pest or weed control at 15.625 g/ha: 15.625 g ai/ha, evaluated after 13 days (100=total damage to plant; 0=no damage to plant), read-out: Morningglory, Ivy-leaved damage rating; for pest or weed control at 62.5 g/ha: 62.5 g ai/ha, read-out: Morningglory, Ivy-leaved damage rating (100=total damage to plant; 0=no damage to plant); for pest or weed control at 62.5 g/ha / pest or weed control at 250 g/ha: evaluated after 13 days; for pest or weed control at 250 g/ha: 250 g ai/ha, read-out: damage to plant, Morningglory, Ivy-leaved (100=total damage to plant; 0=no damage to plant)
Procedure, shortened: (§2)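 Pot-grown seedlings, 8 days old, raised in a glasshouse at 24/16 °C day/night with 14 h light and 65% humidity, were sprayed post-emergence with test compound in acetone/water (50:50) plus 0.5% Tween 20 at 15.625, 62.5 or 250 g/ha. Damage was scored visually 13 days later on a 0–100 scale (100 = total damage).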

[8] = test system: giant foxtail (Setaria faberi); test: Test G Post-Emergence Protocol; settings: Setaria faberi, post-emergence, 312 h; for pest or weed control at 15.625 g/ha: 15.625 g ai/ha, evaluated after 13 days (100=total damage to plant; 0=no damage to plant), read-out: Foxtail, Giant damage rating; for pest or weed control at 62.5 g/ha: 62.5 g ai/ha, read-out: Foxtail, Giant damage rating (100=total damage to plant; 0=no damage to plant); for pest or weed control at 62.5 g/ha / pest or weed control at 250 g/ha: evaluated after 13 days; for pest or weed control at 250 g/ha: 250 g ai/ha, read-out: damage to plant, Foxtail, Giant (100=total damage to plant; 0=no damage to plant)
Procedure, shortened: as §2

[9] = test system: redroot pigweed (Amaranthus retroflexus); test: Test G Post-Emergence Protocol; settings: Amaranthus retroflexus, post-emergence, 312 h; for pest or weed control at 15.625 g/ha: 15.625 g ai/ha, evaluated after 13 days (100=total damage to plant; 0=no damage to plant), read-out: Pigweed, Redroot damage rating; for pest or weed control at 62.5 g/ha: 62.5 g ai/ha, read-out: Pigweed, Redroot damage rating (100=total damage to plant; 0=no damage to plant); for pest or weed control at 62.5 g/ha / pest or weed control at 250 g/ha: evaluated after 13 days; for pest or weed control at 250 g/ha: 250 g ai/ha, read-out: damage to plant, Pigweed, Redroot (100=total damage to plant; 0=no damage to plant)
Procedure, shortened: as §2

[10] = test system: barnyardgrass (Echinochloa crus-galli); test: Test G Post-Emergence Protocol; settings: Echinochloa crus-galli, post-emergence, 312 h; for pest or weed control at 15.625 g/ha: 15.625 g ai/ha, evaluated after 13 days (100=total damage to plant; 0=no damage to plant), read-out: Barnyardgrass damage rating; for pest or weed control at 62.5 g/ha: 62.5 g ai/ha, read-out: Barnyardgrass damage rating (100=total damage to plant; 0=no damage to plant); for pest or weed control at 62.5 g/ha / pest or weed control at 250 g/ha: evaluated after 13 days; for pest or weed control at 250 g/ha: 250 g ai/ha, read-out: damage to plant, Barnyardgrass (100=total damage to plant; 0=no damage to plant)
Procedure, shortened: as §2

[11] = test system: velvetleaf (Abutilon theophrasti); test: Test G Post-Emergence Protocol; settings: Abutilon theophrasti, post-emergence, 312 h; for pest or weed control at 15.625 g/ha: 15.625 g ai/ha, evaluated after 13 days (100=total damage to plant; 0=no damage to plant), read-out: Velvetleaf damage rating; for pest or weed control at 62.5 g/ha: 62.5 g ai/ha, read-out: Velvetleaf damage rating (100=total damage to plant; 0=no damage to plant); for pest or weed control at 62.5 g/ha / pest or weed control at 250 g/ha: evaluated after 13 days; for pest or weed control at 250 g/ha: 250 g ai/ha, read-out: damage to plant, Velvetleaf (100=total damage to plant; 0=no damage to plant)
Procedure, shortened: as §2

[12] = test system: corn (Zea mays); test: Test G Post-Emergence Protocol; settings: Zea mays, post-emergence, 312 h; for plant injury at 15.625 g/ha: 15.625 g ai/ha, evaluated after 13 days (100=total damage to plant; 0=no damage to plant), read-out: Corn damage rating; for plant injury at 62.5 g/ha: 62.5 g ai/ha, read-out: Corn damage rating (100=total damage to plant; 0=no damage to plant); for plant injury at 62.5 g/ha / plant injury at 250 g/ha: evaluated after 13 days; for plant injury at 250 g/ha: 250 g ai/ha, read-out: damage to plant, Corn (100=total damage to plant; 0=no damage to plant)
Procedure, shortened: as §2

Compound	pest or weed control at 15.625 g/ha [1] [%]	pest or weed control at 62.5 g/ha [1] [%]	pest or weed control at 250 g/ha [1] [%]	pest or weed control at 15.625 g/ha [2] [%]	pest or weed control at 62.5 g/ha [2] [%]	pest or weed control at 250 g/ha [2] [%]	pest or weed control at 15.625 g/ha [3] [%]	pest or weed control at 62.5 g/ha [3] [%]	pest or weed control at 250 g/ha [3] [%]	pest or weed control at 15.625 g/ha [4] [%]	pest or weed control at 62.5 g/ha [4] [%]	pest or weed control at 250 g/ha [4] [%]	pest or weed control at 15.625 g/ha [5] [%]	pest or weed control at 62.5 g/ha [5] [%]	pest or weed control at 250 g/ha [5] [%]	plant injury at 15.625 g/ha [6] [%]	plant injury at 62.5 g/ha [6] [%]	plant injury at 250 g/ha [6] [%]	pest or weed control at 15.625 g/ha [7] [%]	pest or weed control at 62.5 g/ha [7] [%]	also measured
CN1C[C@@H](c2ccc(C(F)(F)F)cc2)[C@H](C(=O)Nc2cc(F)c(F)c(F)c2F)C1=O (racemic) [Compound 1625]	0	10	10	0	10	80	0	20	10	0	0	40	0	0	10	0	0	0	0	0	pest or weed control at 250 g/ha [7]: 20%; pest or weed control at 15.625 g/ha [8]: 0%; pest or weed control at 62.5 g/ha [8]: 50%; pest or weed control at 250 g/ha [8]: 80%; pest or weed control at 15.625 g/ha [9]: 0%; pest or weed control at 62.5 g/ha [9]: 30%; pest or weed control at 250 g/ha [9]: 50%; pest or weed control at 15.625 g/ha [10]: 0%; pest or weed control at 62.5 g/ha [10]: 30%; pest or weed control at 250 g/ha [10]: 40%; pest or weed control at 15.625 g/ha [11]: 0%; pest or weed control at 62.5 g/ha [11]: 10%; pest or weed control at 250 g/ha [11]: 40%; plant injury at 15.625 g/ha [12]: 0%; plant injury at 62.5 g/ha [12]: 0%; plant injury at 250 g/ha [12]: 10%
CN1C[C@@H](c2ccc(C(F)(F)F)cc2)[C@H](C(=O)Nc2ccc(F)c(F)c2Cl)C1=O (racemic) [Compound 1627]	0	0	10	70	80	80	0	50	60	0	40	80	0	20	20	0	10	70	60	70	pest or weed control at 250 g/ha [7]: 70%; pest or weed control at 15.625 g/ha [8]: 70%; pest or weed control at 62.5 g/ha [8]: 80%; pest or weed control at 250 g/ha [8]: 80%; pest or weed control at 15.625 g/ha [9]: 20%; pest or weed control at 62.5 g/ha [9]: 60%; pest or weed control at 250 g/ha [9]: 70%; pest or weed control at 15.625 g/ha [10]: 20%; pest or weed control at 62.5 g/ha [10]: 70%; pest or weed control at 250 g/ha [10]: 80%; pest or weed control at 15.625 g/ha [11]: 0%; pest or weed control at 62.5 g/ha [11]: 20%; pest or weed control at 250 g/ha [11]: 40%; plant injury at 15.625 g/ha [12]: 0%; plant injury at 62.5 g/ha [12]: 30%; plant injury at 250 g/ha [12]: 70%

Reference: patent US12077503B2, “Substituted cyclic amides and their use as herbicides” (FMC CORPORATION, priority 2015, dated 2024)
